# In PMC9297947 (Chembiochem, 2021):
# * marks the point of attachment. X1 = Nc1ncnc2c1ncn2[C@@H]1O[C@H](C(=O)NCCNC(=O)CCN2C(=O)CC(*)C2=O)[C@@H](O)[C@H]1O
# T1: AurA (Homo sapiens, UniProt O14965)
# T1 construct: purchased Carna Bioscience
# T1 sequence (O14965 1-403): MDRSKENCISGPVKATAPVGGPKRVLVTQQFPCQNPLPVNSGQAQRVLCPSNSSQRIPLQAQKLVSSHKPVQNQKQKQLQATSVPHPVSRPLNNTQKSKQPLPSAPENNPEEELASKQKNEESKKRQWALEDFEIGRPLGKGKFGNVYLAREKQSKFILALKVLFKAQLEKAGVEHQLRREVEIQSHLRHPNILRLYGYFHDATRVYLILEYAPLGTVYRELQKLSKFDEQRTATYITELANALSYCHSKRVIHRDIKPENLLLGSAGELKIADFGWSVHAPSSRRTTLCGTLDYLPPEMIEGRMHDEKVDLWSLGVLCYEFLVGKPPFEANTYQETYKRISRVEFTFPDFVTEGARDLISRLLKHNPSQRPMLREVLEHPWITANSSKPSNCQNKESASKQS
# T2: Aurora kinase A (AurA) (Homo sapiens, UniProt O14965)
# T2 chain: T1 sequence (O14965 1-403)
# Key:
# [1] = biological target: T1, AurA; test: IMAP TR-FRET kinase inhibition assay, AurA; format: biochemical; conditions: for IC50: FAM-Kemptide 1 µM, ATP 5 µM (Table S2; Figure 3 legend prints mM), TBS reaction buffer
# [2] = biological target: T1, AurA; test: Lineweaver-Burk inhibition mechanism (IMAP TR-FRET, various ATP), AurA; format: biochemical; conditions: Lineweaver-Burk plot, various concentrations of ATP
# From the text: Inhibition Mechanism of Peptide inhibitor Bip-3 for Aurora-A
# Lineweaver-Burk plots were generated by plotting the TR-FRET ratio values, which are proportional to reaction velocity in these conditions [8,9], as a function of the velocity versus ATP concentration ratio (v/[ATP]) at different concentrations of the peptide [19,20].
# [3] = system: phage infectivity of the host TG1 E. coli cells; test: Phage infectivity after chemical modification; conditions: higher concentrations within 0.5–500 μM in PBS, room temperature, 2 h; P8-2KA phage clone
# Experimental: Mild conditions are required for modification to minimize damage to phage clones so that they remain infectious to the host Escherichia coli cells.[[8a]] […] Phage clones (10^11 cfu) of P8‐2KA were treated with 200 μL of serially diluted maleimide‐PEG2‐biotin (0.5–500 μM) in PBS at room temperature for 2 h (Supporting Figure S3).
# 2. Chemical Modification of HLH peptide on Phage
# All of the experiments were performed as described. 200 µL of phage (1012 cfu) was dissolved in PBS (pH 7.0), and 1 µL of 1 mM Maleimide-PEG2-biotin (EZ-Link® Maleimide-PEG2-Biotin, Thermo Scientific) was added and incubated for 2 hr at room temperature. To eliminate the residual reagents in phage solution, the treated solution was purified by ultrafiltration at 14,000 g for 20 min at 4 C by using Amicon® Ultra 0.5 mL Ultracel® 10K (Millipore). After discarding the flow-through, 200 µL of chilled PBST was added, and centrifugated as the same above. 100 µL of the chemically modified phage was added to Streptavidin High Capacity Coated Plate (SIGMA). Detection of phages was performed as described above by using Anti-M13 antibody conjugated with HRP.
# 3. The Infectivity of phages after Chemical Modification
# All of the experiments were performed as described. […] Then the E. coli cells were inoculated onto LB/Agar containing 20 µg/mL chloramphenicol over night at 37°C, and colonies were counted. […]
# [4] = system: anti‐E‐tag antibody; test: Phage ELISA, anti-E-tag antibody; format: binding; conditions: phage clone displaying P8-2KA, 10^10 cfu; HRP anti-M13, OD490
# Experimental: (§1) All of the experiments were performed as described . In this study, the insert fragment encoding of helix-loop- helix (HLH) peptide P8-2KA and phage clone displaying no peptide were prepared. With regard to clone P8-2KA, the insert fragment was initially prepared by overlap extension PCR using P8-2KA 1 fwd and P8-2KA 1 rev. After purification of the fragment, restriction site SfiI and E-tag epitope were introduced by the following PCR using Sfi- YT1- CD 2 fwd and Etag- linker 2 rev, and the product was purified. The fragment was fused with the pIII gene amplified by the two primers prepcr and Sfi2fo with the template fdg3p0ss21, and a fragment encoding P8- 2KA- fused pIII was prepared as described. After digestion of the fragment by SfiI and the succeeding purification, the fragment was ligated with fdg3p0ss21-stop which was digested with the same restriction enzyme. As a negative control, we also prepared a clone displaying no HLH peptide on phage. To prepare the phage clone, only linker primer was used in the PCR together with Sfi2fo and the pIII gene amplified from the template fdg3p0ss21 as described above. […]
# (§2) […] After was hing the wells with PBST 10 times, 100 µL of HRP Anti-M13 antibody conjugated (1:4000) was added, and the OD490 values were measured after adding o-phenylene diamine ([…] OPD, SIGMA) and adding 50 µL of
# [5] = system: G‐CSF‐R; test: Phage ELISA, G-CSF-R; format: binding; conditions: phage clone displaying P8-2KA, 10^10 cfu; HRP anti-M13, OD490
# Experimental: as §1, §2
# [6] = system: BSA; test: Phage ELISA, BSA; format: binding; conditions: phage clone displaying P8-2KA, 10^10 cfu; HRP anti-M13, OD490
# Experimental: as §1, §2
# [7] = system: KDR (VEGF receptor); test: Phage ELISA, KDR; format: binding; conditions: phage clone displaying P8-2KA, 10^10 cfu; HRP anti-M13, OD490
# Experimental: as §1, §2
# [8] = biological target: G‐CSF‐R; conditions: ref [2e] El-Haggar et al., Bioorg. Med. Chem. Lett. 2010; cited from earlier work
# From the text: Mild conditions are required for modification to minimize damage to phage clones so that they remain infectious to the host Escherichia coli cells.[[8a]]
# [9] = system: AurA, AurB, AurC, PAK4, Erk2, PKACα, and Src; test: IMAP TR-FRET kinase selectivity panel; format: biochemical; conditions: 5 μM Bip-3-Adc vs AurA
# Experimental: Figure 3 Inhibitory activities of the selected peptide Bip‐3 and the adenosine‐tethering peptide Bip‐3‐Adc for AurA. (a) The structure of synthesized Bip‐3‐Adc, Bip‐3, and the original HLH peptide YT1. (b) The CD spectra of 20 μM Bip‐3 and YT1 measured in TBS at 20 °C. (c) The binding activity of Bip‐3 to immobilized AurA as determined by SPR experiments (TBS, 0.005 % P‐20, 25 °C). (d) Dose‐dependent inhibitory activities of Bip‐3 and Bip‐3‐Adc for AurA measured using an IMAP® TR‐FRET assay. Inhibition of AurA was determined at 100 ng/mL AurA, 1 mM 5FAM‐Kemptide, 5 mM ATP, in TBS reaction buffer. (e) Inhibitory activities of 5 μM Bip‐3‐Adc for AurA, AurB, AurC, PAK4, Erk2, PKACα, and Src, determined using the IMAP® TR‐FRET assay.
# CD spectra were recorded in TBS at overall peptide concentration of 20 μM on a J-820 spectrometer at 20°C (PTC-423L thermostat, Jasco). The peptide concentrations were determined by measuring absorbance of aromatic residues of peptide dissolved in 6 M Gdn•HCl at UV 280 nm[14].
# 9. Surface Plasmon Resonance […]
# denaturation of AurA, measurements were performed without regeneration of the sensor chip surface at each cycle, and any cycles were started after complete dissociation of analytes from the sensor chip. […] The concentration of adenosine-labeled peptide was determined by using the molar extinction coefficient of adenosine, and aromatic residues at UV 260 […]
# [10] = Circular dichroism; format: physicochemical; conditions: CD, 20 μM peptide in TBS, 20 °C; compared with YT1
# [11] = biological target: T2, Aurora kinase A (AurA); test: SPR
# [12] = 100 ng/mL AurA, 1 hr, room temperature
molecule,measurement,setting,value
Nc1ncnc2c1ncn2[C@@H]1O[C@H](CO)[C@@H](O)[C@H]1O [adenosine],IC50,[1]; [12],0.474 mM
same,mode of inhibition with respect to ATP,[2],competitive inhibition for ATP
O=C(CCCC[C@@H]1SC[C@@H]2NC(=O)N[C@@H]21)NCCOCCOCCNC(=O)CCN1C(=O)C=CC1=O [maleimide‐PEG2‐biotin],phage infectivity of TG1 E. coli cells,[3],small loss of phage infectivity
AELAALEAELAALE‐G7‐KLAALKAKLAALKAY [YT1],inhibitory activity for AurA,[1]; [12],no inhibitory activity
CDGGSGGGS‐AELAALEAELAALE‐G7‐KLAMLKLKLAELKRY [P8‐2KA],binding to anti-E-tag antibody,[4],bound to anti‐E‐tag antibody
same,binding to G-CSF-R,[5],selective binding
same,binding to BSA,[6],no binding was observed
same,binding to KDR,[7],no binding was observed
same,Kd,[8],0.214 µM
H-C(X1)DGGSGGGSAELAALEAELAALEGGGGGGGKLEYLKWKLWPLKGW-NH2 [Bip‐3‐Adc],fold difference in IC50 (inhibition of AurA) vs Bip-3,[1]; Bip-3-Adc vs Bip-3 (IC50 103 μM),13 fold
same,fold difference in IC50 (inhibition of AurA) vs adenosine,[1]; Bip-3-Adc vs adenosine (IC50 474 μM),62 fold
same,mode of inhibition with respect to ATP,[2],uncompetitive inhibition
same,kinase selectivity,[9],highest inhibitory activity and remarkable selectivity for AurA
H-CDGGSGGGSAELAALEAELAALEGGGGGGGKLEYLKWKLWPLKGW-NH2 [Bip‐3],IC50,[1]; [12],0.103 mM
same,mode of inhibition with respect to ATP,[2],mixed inhibition
same,α-helical content,[10],high α‐helical content comparable with that of the original peptide YT1
CDGGSGGGSAELAALEAELAALEGGGGGGGKLEYLKWKLWPLKGW [Bip-3],Kd,[11],13.7 µM
